Key:
[1] = test system: Beet Armyworm (Spodoptera exigua, LAPHEG); experiment: Bioassays on Beet Armyworm (BAW), 128-well diet tray assay; assay type: in vivo; settings: Spodoptera exigua; Table ABC: Biological Results; species BAW; read-out: BAW
How it was run: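 Test molecule was dissolved in 90:10 acetone-water and applied at 50 μg/cm^2 onto artificial diet in eight wells, then dried. Second instar larvae, one to five per well, were added, and trays were kept vented at 25° C. with a 14:10 photoperiod for five to seven days before mortality was recorded.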

[2] = test system: Cabbage Looper (Trichoplusia ni, TRIPNI); experiment: Bioassays on Cabbage Looper (CL), 128-well diet tray assay; assay type: in vivo; settings: Trichoplusia ni; Table ABC: Biological Results; species CL; read-out: CL
How it was run: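 Activity is mean percent mortality over eight wells of second-instar larvae exposed to diet treated at 50 μg/cm^2 for 5–7 days at 25° C.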

Row | Structure (SMILES) | pest or weed control at 50 µg/cm2 [1] [%] | pest or weed control at 50 µg/cm2 [2] [%]
1 | CC(C)(C)C(=O)Nc1c(F)ccc(NC(=O)c2cc(NC(=O)[C@H]3[C@H](c4ccc(F)c(C(F)(F)F)c4)C3(Cl)Cl)ccc2Cl)c1F [F1274, 2-Chloro-5-((1R,3R)-2,2-dichloro-3-(4-fluoro-3-(trifluoromethyl)phenyl)cyclopropane-1-carboxamido)-N-(2,4-difluoro-3-pivalamidophenyl)benzamide] | 50 to 100 | 50 to 100
2 | Nc1c(F)ccc(NC(=O)c2cc(NC(=O)[C@H]3[C@H](c4ccc(Cl)c(Cl)c4)C3(Cl)Cl)cc(F)c2Cl)c1F [F1284, N-(3-Amino-2,4-difluorophenyl)-2-chloro-5-((1R,3R)-2,2-dichloro-3-(3,4-dichlorophenyl)cyclopropane-1-carboxamido)-3-fluorobenzamide] | 50 to 100 | 50 to 100
3 | Nc1c(F)ccc(NC(=O)c2cc(NC(=O)[C@H]3[C@H](c4ccc(F)c(C(F)(F)F)c4)C3(Cl)Cl)cc(F)c2Cl)c1F [F1285, N-(3-Amino-2,4-difluorophenyl)-2-chloro-5-((1R,3R)-2,2-dichloro-3-(4-fluoro-3-(trifluoromethyl)phenyl)cyclopropane-1-carboxamido)-3-fluorobenzamide] | 50 to 100 | 50 to 100
4 | O=C(Nc1ccc(F)c(NC(=O)C(F)F)c1F)c1cc(NC(=O)[C@H]2[C@H](c3ccc(Cl)c(Cl)c3)C2(Cl)Cl)cc(F)c1Cl [F1287, 2-Chloro-5-((1R,3R)-2,2-dichloro-3-(3,4-dichlorophenyl)cyclopropane-1-carboxamido)-N-(3-(2,2-difluoroacetamido)-2,4-difluorophenyl)-3-fluorobenzamide] | 50 to 100 | 50 to 100
5 | O=C(Nc1ccc(F)c(NC(=O)C(F)(F)F)c1F)c1cc(NC(=O)[C@H]2[C@H](c3ccc(Cl)c(Cl)c3)C2(Cl)Cl)cc(F)c1Cl [F1288, 2-Chloro-5-((1R,3R)-2,2-dichloro-3-(3,4-dichlorophenyl)cyclopropane-1-carboxamido)-N-(2,4-difluoro-3-(2,2,2-trifluoroacetamido)phenyl)-3-fluorobenzamide] | 50 to 100 | 50 to 100
6 | O=C(Nc1ccc(F)c(NC(=O)C(F)F)c1F)c1cc(NC(=O)[C@H]2[C@H](c3ccc(F)c(C(F)(F)F)c3)C2(Cl)Cl)cc(F)c1Cl [F1289, 2-Chloro-5-((1R,3R)-2,2-dichloro-3-(4-fluoro-3-(trifluoromethyl)phenyl)-cyclopropane-1-carboxamido)-N-(3-(2,2-difluoroacetamido)-2,4-difluorophenyl)-3-fluorobenzamide] | 50 to 100 | 50 to 100
7 | O=C(Nc1ccc(F)c(NC(=O)C(F)(F)F)c1F)c1cc(NC(=O)[C@H]2[C@H](c3ccc(F)c(C(F)(F)F)c3)C2(Cl)Cl)cc(F)c1Cl [F1290, 2-Chloro-5-((1R,3R)-2,2-dichloro-3-(4-fluoro-3-(trifluoromethyl)phenyl)cyclopropane-1-carboxamido)-N-(2,4-difluoro-3-(2,2,2-trifluoroacetamido)phenyl)-3-fluorobenzamide] | 50 to 100 | 50 to 100
8 | O=C(Nc1ccc(F)c(NC(=O)C(F)(F)F)c1F)c1cc(NC(=O)[C@H]2[C@H](c3ccc(F)c(Cl)c3)C2(Cl)Cl)cc(F)c1Cl [F1291, 2-Chloro-5-((1R,3R)-2,2-dichloro-3-(3-chloro-4-fluorophenyl)cyclopropane-1-carboxamido)-N-(2,4-difluoro-3-(2,2,2-trifluoroacetamido)phenyl)-3-fluorobenzamide] | 50 to 100 | 50 to 100
9 | O=C(Nc1ccc(F)c(NCc2ccc([N+](=O)[O-])cc2)c1F)c1cc(NC(=O)[C@H]2[C@H](c3ccc(F)c(C(F)(F)F)c3)C2(Cl)Cl)ccc1Cl [F1296, 2-Chloro-5-((1R,3R)-2,2-dichloro-3-(4-fluoro-3-(trifluoromethyl)phenyl)cyclopropane-1-carboxamido)-N-(2,4-difluoro-3-((4-nitrobenzyl)amino)phenyl)benzamide] | 50 to 100 | 50 to 100
10 | Cc1ccc(C(=O)Nc2c(F)ccc(NC(=O)c3cc(NC(=O)[C@H]4[C@H](c5ccc(F)c(C(F)(F)F)c5)C4(Cl)Cl)ccc3Cl)c2F)s1 [F1302, N-(3-(2-Chloro-5-((1R,3R)-2,2-dichloro-3-(4-fluoro-3-(trifluoromethyl)phenyl)cyclopropane-1-carboxamido)benzamido)-2,6-difluorophenyl)-5-methylthiophene-2-carboxamide] | 50 to 100 | 50 to 100
11 | Nc1c(F)ccc(NC(=O)c2cc(NC(=O)[C@H]3[C@H](c4cc(Cl)cc(Cl)c4)C3(Cl)Cl)cc(F)c2Cl)c1F [F1324, N-(3-Amino-2,4-difluorophenyl)-2-chloro-5-((1R,3R)-2,2-dichloro-3-(3,5-dichlorophenyl)cyclopropane-1-carboxamido)-3-fluorobenzamide] | 50 to 100 | 50 to 100
12 | Nc1c(F)ccc(NC(=O)c2cc(NC(=O)[C@H]3[C@H](c4cc(Cl)c(Cl)c(Cl)c4)C3(Cl)Cl)cc(F)c2Cl)c1F [F1325, N-(3-Amino-2,4-difluorophenyl)-2-chloro-5-((1R,3R)-2,2-dichloro-3-(3,4,5-trichlorophenyl)cyclopropane-1-carboxamido)-3-fluorobenzamide] | 50 to 100 | 50 to 100
13 | O=C(Nc1ccc(F)c(NC(=O)C(F)(F)F)c1F)c1cc(NC(=O)[C@H]2[C@H](c3cc(Cl)cc(Cl)c3)C2(Cl)Cl)cc(F)c1Cl [F1330, 2-Chloro-5-((1R,3R)-2,2-dichloro-3-(3,5-dichlorophenyl)cyclopropane-1-carboxamido)-N-(2,4-difluoro-3-(2,2,2-trifluoroacetamido)phenyl)-3-fluorobenzamide] | 50 to 100 | 50 to 100
14 | O=C(Nc1ccc(F)c(NC(=O)C(F)F)c1F)c1cc(NC(=O)[C@H]2[C@H](c3cc(Cl)cc(Cl)c3)C2(Cl)Cl)cc(F)c1Cl [F1333, 2-Chloro-5-((1R,3R)-2,2-dichloro-3-(3,5-dichlorophenyl)cyclopropane-1-carboxamido)-N-(3-(2,2-difluoroacetamido)-2,4-difluorophenyl)-3-fluorobenzamide] | 50 to 100 | 50 to 100
15 | O=C(Nc1ccc(F)c(NC(=O)C(F)(F)F)c1F)c1cc(NC(=O)[C@H]2[C@H](c3cc(Cl)c(Cl)c(Cl)c3)C2(Cl)Cl)cc(F)c1Cl [F1334, 2-Chloro-5-((1R,3R)-2,2-dichloro-3-(3,4,5-trichlorophenyl)cyclopropane-1-carboxamido)-N-(2,4-difluoro-3-(2,2,2-trifluoroacetamido)phenyl)-3-fluorobenzamide] | 50 to 100 | 50 to 100
16 | O=C(Nc1ccc(F)c(NC(=O)C(F)F)c1F)c1cc(NC(=O)[C@H]2[C@H](c3cc(Cl)c(Cl)c(Cl)c3)C2(Cl)Cl)cc(F)c1Cl [F1335, 2-Chloro-5-((1R,3R)-2,2-dichloro-3-(3,4,5-trichlorophenyl)cyclopropane-1-carboxamido)-N-(3-(2,2-difluoroacetamido)-2,4-difluorophenyl)-3-fluorobenzamide] | 50 to 100 | 50 to 100
17 | Nc1ccc(F)c(NC(=O)c2cc(NC(=O)[C@H]3[C@H](c4cc(Cl)cc(Cl)c4)C3(Cl)Cl)cc(F)c2Cl)c1F [F1336, N-(3-Amino-2,6-difluorophenyl)-2-chloro-5-((1R,3R)-2,2-dichloro-3-(3,5-dichlorophenyl)cyclopropane-1-carboxamido)-3-fluorobenzamide] | 50 to 100 | 50 to 100
18 | Nc1ccc(F)c(NC(=O)c2cc(NC(=O)[C@H]3[C@H](c4cc(Cl)c(Cl)c(Cl)c4)C3(Cl)Cl)cc(F)c2Cl)c1F [F1337, N-(3-Amino-2,6-difluorophenyl)-2-chloro-5-((1R,3R)-2,2-dichloro-3-(3,4,5-trichlorophenyl)cyclopropane-1-carboxamido)-3-fluorobenzamide] | 50 to 100 | 50 to 100
19 | Nc1ccc(F)c(NC(=O)c2cc(NC(=O)[C@H]3[C@H](c4ccc(Cl)c(Cl)c4)C3(Cl)Cl)cc(F)c2Cl)c1F [F1338, N-(3-Amino-2,6-difluorophenyl)-2-chloro-5-((1R,3R)-2,2-dichloro-3-(3,4-dichlorophenyl)cyclopropane-1-carboxamido)-3-fluorobenzamide] | 50 to 100 | 50 to 100
20 | Nc1ccc(F)c(NC(=O)c2cc(NC(=O)[C@H]3[C@H](c4ccc(F)c(C(F)(F)F)c4)C3(Cl)Cl)cc(F)c2Cl)c1F [F1339, N-(3-Amino-2,6-difluorophenyl)-2-chloro-5-((1R,3R)-2,2-dichloro-3-(4-fluoro-3-(trifluoromethyl)phenyl)cyclopropane-1-carboxamido)-3-fluorobenzamide] | 50 to 100 | 50 to 100
21 | O=C(Nc1c(F)ccc(NC(=O)C(F)(F)F)c1F)c1cc(NC(=O)[C@H]2[C@H](c3cc(Cl)cc(Cl)c3)C2(Cl)Cl)cc(F)c1Cl [F1340, 2-Chloro-5-((1R,3R)-2,2-dichloro-3-(3,5-dichlorophenyl)cyclopropane-1-carboxamido)-N-(2,6-difluoro-3-(2,2,2-trifluoroacetamido)phenyl)-3-fluorobenzamide] | 50 to 100 | 50 to 100
22 | O=C(Nc1c(F)ccc(NC(=O)C(F)F)c1F)c1cc(NC(=O)[C@H]2[C@H](c3cc(Cl)cc(Cl)c3)C2(Cl)Cl)cc(F)c1Cl [F1341, 2-Chloro-5-((1R,3R)-2,2-dichloro-3-(3,5-dichlorophenyl)cyclopropane-1-carboxamido)-N-(3-(2,2-difluoroacetamido)-2,6-difluorophenyl)-3-fluorobenzamide] | 50 to 100 | 50 to 100

— patent publication US20250228239A1, “MOLECULES HAVING PESTICIDAL UTILITY, AND INTERMEDIATES, COMPOSITIONS, AND PROCESSES, RELATED THERETO” (priority 2024, published 2025)
